Experimental data taken from patent US20230293475A1, “METHODS OF PROVIDING SO[…] TO SUBJECTS WITH IMPAIRED RENAL FUNCTION” (Axsome Malta Ltd., priority 2020, published 2023).

Test: Phase 1 single-dose study, safety (treatment-emergent adverse events)
Format: in vivo, human
Procedure: In healthy subjects with normal renal function, solriamfetol HCl is renally excreted ~90% unchanged within 48 hours of administration. Thus, renal impairment, as well as hemodialysis in individuals with end-stage renal disease (ESRD), could affect the PK of solriamfetol HCl. To ascertain the precise impact of renal impairment and hemodialysis on pharmacokinetics and safety of solriamfetol RCl, a Phase 1, parallel-group, open-label, single-dose study was conducted at 2 U.S. sites. The protocol was approved by the IntegReview Institutional Review Board (Austin, Texas), and the study was conducted in compliance with the protocol, the Guideline for Good Clinical Practice E6; the US Code of Federal Regulations pertaining to conduct and reporting of clinical studies; the Clinical Trials Directive of the European Medicines Agency (Directive 2001/20/EC); and the Declaration of Helsinki. Written informed consent was obtained from each subject before enrollment in the study and before performance of any study-related procedure. See, also, Zomorodi K, Chen D, Lee L, Lasseter K, Marbury T. An Open-Label, Single-Dose, Phase 1 Study of the Pharmacokinetics and Safety of JZP-110 in Subjects With Normal or Impaired Renal Function and With End-Stage Renal Disease Requiring Hemodialysis [abstract]. Sleep. 2017;40 (suppl):A382-383.
Eligible participants were assigned to 1 of 5 groups according to renal disease status as measured by the estimated glomerular filtration rate (eGFR) on the day prior to dosing, calculated using the Modification in Diet in Renal Disease equation. Group 1 consisted of healthy participants with normal renal function (eGFR ≥ 90 mL/min/1.73 m^2) and served as the control group. Groups 2, 3, and 4 had mild, moderate, and severe renal impairment based on eGFRs of 60-89, 30-59, and < 30 mL/min/1.73 m^2, respectively. Group 5 consisted of participants with ESRD who required ≥ 3 hemodialysis treatments per week for the preceding 3 months. […] Group 1 was enrolled last to facilitate matching the mean age, BMI, and sex distribution of Groups 2-5.
Groups 1-4 received one dose of solriamfetol HCl (89.3 mg; equivalent to 75-mg solriamfetol) on day 1; Group 5 received one dose equivalent to 75-mg dose on day 1 followed by 4-hour hemodialysis (designated Group 5.2), and one dose equivalent to 75-mg solriamfetol on day 8 without hemodialysis (designated Group 5.1). All doses were administered on an empty stomach following an overnight fast except for participants in Group 5, who received a standardized snack on day 7 and breakfast early on day 8 before starting an 8-hour fast. Participants remained fasting for 4 hours after administration, with water allowed except for 1 hour before and after dosing.

[1] = Group 1 normal renal function (n = 6), single 75-mg dose
[2] = Group 2 mild renal impairment (n = 6), single 75-mg dose
[3] = Group 3 moderate renal impairment (n = 6), single 75-mg dose
[4] = Group 4 severe renal impairment (n = 6), single 75-mg dose
[5] = Group 5.1 ESRD without hemodialysis (n = 6), single 75-mg dose
[6] = Group 5.2 ESRD with hemodialysis (n = 7), single 75-mg dose

## NC(=O)OC[C@H](N)Cc1ccccc1 [solriamfetol, [R]-2-amino-3-phenylpropylcarbamate]
1 participant, Group 5, 6 days after dosing, reference range 8-40 IU/L
  aspartate aminotransferase (AST), increase to: 66 IU/L
1 participant, Group 5, 6 days after dosing, reference range 8-54 IU/L
  alanine aminotransferase (ALT), increase to: 144 IU/L
[1]
  ALT increased, number (%) of participants: 0
  AST increased, number (%) of participants: 0
  Any TEAE, number (%) of participants: 0
  Headache, number (%) of participants: 0
  Nausea, number (%) of participants: 0
  Skin abrasion, number (%) of participants: 0
[2]
  ALT increased, number (%) of participants: 0
  AST increased, number (%) of participants: 0
  Any TEAE, number (%) of participants: 1 (17%)
  Headache, number (%) of participants: 0
  Nausea, number (%) of participants: 0
  Skin abrasion, number (%) of participants: 1 (17%)
[3]
  ALT increased, number (%) of participants: 0
  AST increased, number (%) of participants: 0
  Any TEAE, number (%) of participants: 1 (17%)
  Headache, number (%) of participants: 1 (17%)
  Nausea, number (%) of participants: 0
  Skin abrasion, number (%) of participants: 0
[4]
  ALT increased, number (%) of participants: 0
  AST increased, number (%) of participants: 0
  Any TEAE, number (%) of participants: 0
  Headache, number (%) of participants: 0
  Nausea, number (%) of participants: 0
  Skin abrasion, number (%) of participants: 0
[5]
  ALT increased, number (%) of participants: 0
  AST increased, number (%) of participants: 0
  Any TEAE, number (%) of participants: 1 (17%)
  Headache, number (%) of participants: 0
  Nausea, number (%) of participants: 1 (17%)
  Skin abrasion, number (%) of participants: 0
[6]
  ALT increased, number (%) of participants: 1 (14%)
  AST increased, number (%) of participants: 1 (14%)
  Any TEAE, number (%) of participants: 1 (14%)
  Headache, number (%) of participants: 0
  Nausea, number (%) of participants: 0
  Skin abrasion, number (%) of participants: 0
All groups, 31 participants (13%)
  participants reporting treatment-emergent adverse events, total: 4
All groups, single 75-mg dose
  deaths or other serious AEs: no deaths or other serious AEs
  severity of all TEAEs as considered by the investigator: mild
  vital sign and ECG measurements: No clinically significant abnormal findings
